Source: ChEMBL document CHEMBL1201862, “PubChem BioAssay data set” (2004)
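A five-concentration, 48-hour dose response in 96-well plates underlies each endpoint, interpolated linearly between surrounding concentrations. At the GI50, growth is halved.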 Activity calls are given as the source filed them. No stated cut-off is given here; in the data, active = GI50 up to about 1.1 µM and inactive = higher.

Legend:
Assay in all cases: NCI anticancer screen, dose series, 48 h
MCF7 = test system: MCF7
SNB-19 = test system: SNB-19
EKVX = test system: EKVX
786-0 = test system: 786-0
A549 = test system: A549
NCI/ADR-RES = test system: NCI/ADR-RES
U-251 = test system: U-251
IGROV-1 = test system: IGROV-1
KM12 = test system: KM12
SK-MEL-28 = test system: SK-MEL-28
SF-295 = test system: SF-295
NCI-H226 = test system: NCI-H226
HCC 2998 = test system: HCC 2998
CCRF-CEM = test system: CCRF-CEM
MDA-MB-435 = test system: MDA-MB-435
HL-60 = test system: HL-60

Measured: GI50

COC(=O)/C=C(/C)n1nc2ccccc2n1
inactive: MCF7 > 100 µM | SNB-19 > 100 µM | EKVX 37.7 µM | 786-0 > 100 µM | A549 > 100 µM | NCI/ADR-RES > 100 µM | U-251 > 100 µM | IGROV-1 > 100 µM | KM12 > 100 µM | SK-MEL-28 > 100 µM | SF-295 > 100 µM | NCI-H226 > 100 µM | HCC 2998 > 100 µM | CCRF-CEM > 100 µM | MDA-MB-435 > 100 µM

O=C(NCC(O)COc1ccccc1)c1ccccc1O (centres undefined)
inactive: MCF7 > 100 µM | SNB-19 91 µM | EKVX > 100 µM | 786-0 > 100 µM | A549 > 100 µM | NCI/ADR-RES 58.6 µM | U-251 > 100 µM | IGROV-1 > 100 µM | KM12 > 100 µM | SK-MEL-28 > 100 µM | SF-295 > 100 µM | NCI-H226 > 100 µM | HCC 2998 > 100 µM | CCRF-CEM 40.5 µM | MDA-MB-435 > 100 µM

c1ccc(/C(=N/Nc2cnccn2)c2ncccn2)cc1
inactive: MCF7 > 100 µM | SNB-19 > 100 µM | EKVX 18.2 µM | 786-0 81.3 µM | A549 > 100 µM | NCI/ADR-RES 83.2 µM | U-251 > 100 µM | IGROV-1 23.7 µM | KM12 39 µM | SK-MEL-28 > 100 µM | SF-295 > 100 µM | HCC 2998 > 100 µM | CCRF-CEM 28 µM | MDA-MB-435 > 100 µM

COc1ccc2c(c1)c1c(n2CCN(C)C)-c2cccc(OC)c2CC1
inactive: MCF7 13.2 µM | SNB-19 18.8 µM | EKVX 14.4 µM | 786-0 22.3 µM | A549 12.3 µM | NCI/ADR-RES 17.5 µM | U-251 11.6 µM | IGROV-1 18.5 µM | KM12 11.2 µM | SK-MEL-28 14.2 µM | SF-295 13.5 µM | NCI-H226 4.49 µM | HCC 2998 11.6 µM | CCRF-CEM 2.65 µM | MDA-MB-435 12 µM

Cc1c2c(c(C)n1-c1ccccc1)C(=O)N(CCN1CCN(c3cccc(C(F)(F)F)c3)CC1)C2=O
inactive: MCF7 7.71 µM | SNB-19 > 100 µM | EKVX 8.02 µM | 786-0 71.8 µM | A549 46.6 µM | NCI/ADR-RES 59.4 µM | U-251 31.3 µM | IGROV-1 > 100 µM | KM12 30.5 µM | SF-295 50.1 µM | NCI-H226 > 100 µM | HCC 2998 97.5 µM | MDA-MB-435 > 100 µM

c1ccc(C2SCC3=Nc4ccccc4CN32)cc1 (centres undefined)
inactive: MCF7 26.9 µM | SNB-19 13.4 µM | 786-0 21.3 µM | A549 53.8 µM | NCI/ADR-RES 17.5 µM | U-251 63 µM | HL-60 23.6 µM | KM12 43.5 µM | SK-MEL-28 50.4 µM | SF-295 14.7 µM | HCC 2998 61.7 µM | CCRF-CEM 34.2 µM | MDA-MB-435 29.7 µM

Cc1ccc(NC(=S)C#N)cc1Cl
inactive: MCF7 56.2 µM | EKVX 42.2 µM | 786-0 45.2 µM | A549 23.8 µM | NCI/ADR-RES 31 µM | U-251 55.8 µM | IGROV-1 17.1 µM | KM12 37.8 µM | SK-MEL-28 41.2 µM | SF-295 26.4 µM | NCI-H226 24.3 µM | HCC 2998 24.3 µM | CCRF-CEM 25.5 µM | MDA-MB-435 41.8 µM

COc1cc2c3c4[n+](cc2c(OC)c1OC)CCC4CCC3 (centres undefined)
inactive: MCF7 75.2 µM | SNB-19 48.9 µM | EKVX > 100 µM | 786-0 > 100 µM | A549 > 100 µM | NCI/ADR-RES > 100 µM | U-251 53.8 µM | IGROV-1 > 100 µM | KM12 47.4 µM | SK-MEL-28 > 100 µM | SF-295 > 100 µM | NCI-H226 > 100 µM | HCC 2998 > 93.1 µM | CCRF-CEM > 62.1 µM | MDA-MB-435 > 100 µM
